This is an account of results in patent US8501953B2, “PKM2 modulators for use in the treatment of cancer” (Agios Pharmaceuticals, Inc, priority 2009, dated 2013).

A word on the AC50: it is the concentration giving half of the maximal activity seen.

PKM2, sequence (P14618 whole entry): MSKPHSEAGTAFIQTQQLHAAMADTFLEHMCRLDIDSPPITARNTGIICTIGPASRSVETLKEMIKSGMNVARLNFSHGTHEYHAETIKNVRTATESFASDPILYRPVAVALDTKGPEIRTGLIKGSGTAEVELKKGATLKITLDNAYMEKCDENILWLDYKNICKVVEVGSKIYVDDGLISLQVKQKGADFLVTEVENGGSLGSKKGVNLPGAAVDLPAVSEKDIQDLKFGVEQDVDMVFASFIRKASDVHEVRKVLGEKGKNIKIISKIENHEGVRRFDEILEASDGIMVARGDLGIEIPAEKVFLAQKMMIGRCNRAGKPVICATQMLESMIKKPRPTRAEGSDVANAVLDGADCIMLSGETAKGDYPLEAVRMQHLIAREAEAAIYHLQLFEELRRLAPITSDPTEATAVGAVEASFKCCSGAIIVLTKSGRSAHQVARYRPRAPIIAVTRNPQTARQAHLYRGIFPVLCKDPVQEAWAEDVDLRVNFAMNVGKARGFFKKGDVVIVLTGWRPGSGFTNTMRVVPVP

This experiment deals with PKM2 (Homo sapiens, UniProt P14618). The experiment can be described thus: PKM2 Assay (activation; LDH-coupled, NADH absorbance at 340 nm). The class given is biochemical. The following applies: PKM2 50 ng/well, ADP 0.7 mM, PEP 0.15 mM, no FBP in Reaction Mix. Here is the method:
• PKM2 stock enzyme solution was diluted in Reaction Buffer • 2 μL of compound was added into each well first, and then 180 μL of the Reaction Mix was added. • Reaction mixture with compound (without ADP) were incubated for 30 minutes at 4° C. • Plates were re-equilibrated to room temperature prior to adding 20 μL ADP to initiate the reaction. • Reaction progress was measured as changes in absorbance at 340 nm wavelength at room temperature (25° C.) Reaction Mix: PKM2 (50 ng/well), ADP (0.7 mM), PEP (0.15 mM), NADH (180 μM), LDH (2 units) in Reaction Buffer Reaction Buffer: 100 mM KCl, 50 mM Tris pH 7.5, 5 mM MgCl2, 1 mM DTT, 0.03% BSA.
`O=c1[nH]c2cc(NS(=O)(=O)c3cccc(Cl)c3)c(Cl)cc2o1` registered an AC50 of 10 to 50 µM.
With `Cn1c(=O)oc2cc(S(=O)(=O)Nc3c(F)cccc3F)ccc21` the figure was 1 to 10 µM.
As for `Cn1c(=O)oc2cc(S(=O)(=O)Nc3ccc(F)cc3)ccc21`, the concentration at half-maximal activity (AC50) was in the range of 1 to 10 µM.
The compound `Cn1c(=O)oc2cc(S(=O)(=O)Nc3ccc(Cl)cc3)ccc21` came in with an AC50 of 1 to 10 µM.
For `Cn1c(=O)oc2cc(S(=O)(=O)Nc3ccc4c(c3)OCCO4)ccc21` the value was 1 to 10 µM; for `Cn1c(=O)oc2cc(S(=O)(=O)Nc3ccccc3)ccc21`, 1 to 10 µM.
With `COc1ccc(Cl)cc1S(=O)(=O)N1CCN(S(=O)(=O)c2ccc3c(c2)oc(=O)n3C)CC1` the figure was 1 to 10 µM; with `Cn1c(=O)oc2cc(S(=O)(=O)N3CCN(S(=O)(=O)c4c(F)cccc4F)CC3)ccc21`, 1 to 10 µM.
`Cn1c(=O)oc2cc(S(=O)(=O)N3CCN(S(=O)(=O)c4ccc5ccccc5c4)CC3)ccc21` registered an AC50 of under 1 µM.
Turning to `Cc1cc(C)cc(NS(=O)(=O)c2cc3oc(=O)n(C)c3cc2F)c1`, the AC50 was under 1 µM.
Compound `Cc1cc(C)cc(NS(=O)(=O)c2ccc3c(c2)oc(=O)n3CCc2ccccc2)c1` registered an AC50 of 1 to 10 µM.
In turn, `Cc1cc(C)cc(NS(=O)(=O)c2ccc3c(c2)oc(=O)n3Cc2ccccc2)c1` had an AC50 of 1 to 10 µM.
In turn, `Cn1c(=O)oc2cc(S(=O)(=O)Nc3cc(F)cc(F)c3)ccc21` yielded an AC50 of 1 to 10 µM.
For `Cn1c(=O)oc2cc(S(=O)(=O)Nc3ccc(Cl)c(F)c3)ccc21` the value was 1 to 10 µM.
For `Cn1c(=O)oc2cc(S(=O)(=O)Nc3ccc(F)c(Cl)c3)ccc21`, the AC50 was under 1 µM.
For the compound `Cc1ccc(NS(=O)(=O)c2ccc3c(c2)oc(=O)n3C)cc1F`, the concentration at half-maximal activity (AC50) fell in the range of 1 to 10 µM.
Take `Cn1c(=O)oc2cc(S(=O)(=O)Nc3ccc(Cl)c(Cl)c3)ccc21`: the AC50 is 1 to 10 µM.
Regarding `Cc1cc2c(cc1S(=O)(=O)N1CCN(S(=O)(=O)c3c(F)cccc3F)CC1)oc(=O)n2C`, the AC50 fell in the range of 1 to 10 µM.
On to `Cc1ccc(COC(=O)N2CCN(S(=O)(=O)c3cc4oc(=O)n(C)c4cc3C)CC2)cc1`, for which the AC50 is 1 to 10 µM.
Compound `Cc1cc2c(cc1S(=O)(=O)N1CCN(C(=O)COc3ccccc3)CC1)oc(=O)n2C` gave a concentration at half-maximal activity (AC50) of over 100 µM.
`Cc1cc2c(cc1S(=O)(=O)N1CCN(C(=O)COc3ccc(-n4cnnn4)cc3)CC1)oc(=O)n2C`: the AC50 fell in the range of 10 to 50 µM.
As to `Cc1cc2c(cc1S(=O)(=O)N1CCN(S(=O)(=O)c3ccc4c(c3)OCCO4)CC1)oc(=O)n2C`, the AC50 is under 1 µM.
In turn, `Cn1c(=O)oc2cc(S(=O)(=O)N3CCN(S(=O)(=O)c4ccc5c(c4)OCCO5)CC3)ccc21` registered a concentration at half-maximal activity (AC50) of under 1 µM.
With `COc1cc(NS(=O)(=O)c2ccc3c(c2)oc(=O)n3C)cc(OC)c1`, the half-maximal activity concentration (AC50) was under 1 µM.
`Cn1c(=O)oc2cc(S(=O)(=O)Nc3ccc4c(c3)OCO4)ccc21` yielded an AC50 of under 1 µM.
Take `Cc1ccc(NS(=O)(=O)c2ccc3c(c2)oc(=O)n3C)cc1C`: the AC50 was under 1 µM.
As for `Cc1cc(NS(=O)(=O)c2ccc3c(c2)oc(=O)n3C)ccc1Cl`, the AC50 is under 1 µM.
Compound `Cn1c(=O)oc2cc(S(=O)(=O)Nc3cccc(C(F)(F)F)c3)ccc21` showed a half-maximal activity concentration (AC50) of 1 to 10 µM.
The compound `Cn1c(=O)oc2cc(S(=O)(=O)Nc3cccc(Cl)c3)ccc21` showed a concentration at half-maximal activity (AC50) of under 1 µM.
`Cn1c(=O)oc2cc(S(=O)(=O)Nc3ccc(F)c(F)c3)ccc21`: the AC50 was under 1 µM.
For the compound `Cn1c(=O)oc2cc(S(=O)(=O)Nc3ccc(OC(F)(F)F)c(Br)c3)ccc21`, the AC50 fell in the range of 1 to 10 µM.
In the case of `Cn1c(=O)oc2cc(S(=O)(=O)Nc3ccc(OC(F)(F)F)c(Cl)c3)ccc21`, the AC50 is 1 to 10 µM.
On to `Cn1c(=O)oc2cc(S(=O)(=O)Nc3cc(F)cc(Cl)c3)ccc21`, for which the AC50 was under 1 µM.
With `Cn1c(=O)oc2cc(S(=O)(=O)Nc3cc(Cl)cc(Cl)c3)ccc21` the figure was under 1 µM; with `CCc1cccc(NS(=O)(=O)c2ccc3c(c2)oc(=O)n3C)c1`, under 1 µM; with `COc1ccc(C)cc1S(=O)(=O)Nc1ccc(NS(=O)(=O)c2ccc3c(c2)oc(=O)n3C)cc1`, 1 to 10 µM.
